# Data from PubChem BioAssay AID652062 (Broad Institute, 2013).
# Several values for one entry are separate records, joined by “and”; a condition that tells them apart may be missing. Equal entries are not always repeated.
# Tested on: HeLa-AD8 Env / CEM-CCR5 cell fusion, luciferase
# Experiment: HIV-1 AD8 envelope cell-cell fusion blockers – cherry-pick, dose response (AID 652062)
row,Structure (SMILES),AC50
1,COC(=O)C1(C(=O)OC)C[C@H](c2ccc(OC)cc2)N(Cc2ccccc2OC)[C@@H]1c1cccs1,2.49 µM and 11.3 µM
2,C[C@H](CO)N1C[C@H](C)[C@H](CN(C)S(=O)(=O)c2ccccc2)Oc2ncc(/C=C/c3ccccc3)cc2C1=O,23.8 µM and 3.07 µM
3,O=C(C[C@H]1C[C@H]2c3cc(NC(=O)c4ccc5c(c4)OCO5)ccc3O[C@H]2[C@H](CO)O1)NCc1ccc(Oc2ccccc2)cc1,15.1 µM
